The melting point is the temperature of the solid-liquid transition. What is called inhibition is the change of the read-out against control, counted positive when it falls. As usually defined, the IC50 is the concentration that inhibits the measured activity by half.

For 20 compounds, melting point, inhibition and IC50 results are on record in US9527832B2, “Substituted condensed pyrimidine compounds” (GRÜNENTHAL GMBH, priority 2013, dated 2016).

In one data set the target is T1, human PDE4B1 (Homo sapiens, UniProt Q07343).
T1 construct: host or cells: Sf9 cells
Put plainly: cAMP HTRF assay to determine the activity of hPDE4B1. The data set is classed as biochemical. The note with it: for inhibition at 1 µM: Percentage inhibition of PDE4B at 1 μM test concentration; for IC50: dose response measurements with eight concentrations, reported as ranges, read-out: IC50. An outline of the steps:
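Sf9-expressed recombinant human PDE4B1 (4.8 U) in Tris-HCl/MgCl2/DTT/Tween 20 buffer pH 7.8, with cAMP at 40 nM final, 30 min at room temperature. Reaction stopped with IBMX 1 mM; remaining cAMP detected by HTRF (665/620 nm ratio). IC50 from eight-point dose-response, n=2.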
(In general: Time-resolved FRET reads energy transfer from a long-lived donor to a nearby acceptor.)

T1 sequence (Q07343 whole entry): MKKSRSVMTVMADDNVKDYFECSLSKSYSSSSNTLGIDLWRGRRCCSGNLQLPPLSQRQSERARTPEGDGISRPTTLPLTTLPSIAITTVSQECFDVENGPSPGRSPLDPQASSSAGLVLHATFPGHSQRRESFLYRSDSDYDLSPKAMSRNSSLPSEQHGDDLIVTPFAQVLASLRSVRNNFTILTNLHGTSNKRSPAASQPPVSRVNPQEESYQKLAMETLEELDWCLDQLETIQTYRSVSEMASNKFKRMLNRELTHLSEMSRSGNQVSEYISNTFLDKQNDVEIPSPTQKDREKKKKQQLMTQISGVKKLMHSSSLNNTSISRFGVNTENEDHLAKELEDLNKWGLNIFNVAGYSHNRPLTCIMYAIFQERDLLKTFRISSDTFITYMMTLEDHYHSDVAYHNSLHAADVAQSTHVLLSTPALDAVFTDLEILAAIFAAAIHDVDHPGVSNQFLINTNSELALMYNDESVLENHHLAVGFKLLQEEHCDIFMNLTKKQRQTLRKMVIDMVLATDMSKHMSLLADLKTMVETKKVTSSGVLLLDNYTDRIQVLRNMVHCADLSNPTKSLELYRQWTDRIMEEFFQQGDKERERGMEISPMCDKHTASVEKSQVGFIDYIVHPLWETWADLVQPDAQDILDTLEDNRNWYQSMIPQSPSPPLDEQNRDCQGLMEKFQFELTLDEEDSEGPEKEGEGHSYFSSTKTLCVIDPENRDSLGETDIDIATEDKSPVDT

Compound `CN(C)C(=O)COc1cccc2c1CCN2c1nc(-c2cccc(Cl)c2)nc2c1CS(=O)(=O)C2` [Compound No. 2-6, 2-((1-(2-(3-Chlorophenyl)-6,6-dioxo-5,7-dihydro-thieno[3,4-d]pyrimidin-4-yl)-2,3-dihydro-1H-indol-4-yl)oxy)-N,N-dimethyl-acetamide] yielded a melting point of 222 to 226 °C.
As to `CN(C)C(=O)COc1cccc2c1CCN2c1nc(-c2ccc(F)c(F)c2)nc2c1CS(=O)(=O)C2` [Compound No. 2-12, 2-((1-(2-(3,4-Difluoro-phenyl)-6,6-dioxo-5,7-dihydro-thieno[3,4-d]pyrimidin-4-yl)-2,3-dihydro-1H-indol-4-yl)oxy)-N,N-dimethyl-acetamide], the melting point was 212 to 217 °C.
As for `CN(C)C(=O)COc1ccc2c(c1)N(c1nc(-c3ccccc3Cl)nc3c1C[S+]([O-])C3)CC2` (centres unmarked) [2-96, 2-[[1-[2-(2-Chlorophenyl)-6-oxo-5,7-dihydro-thieno[3,4-d]pyrimidin-4-yl]-2,3-dihydro-1H-indol-6-yl]oxy]-N,N-dimethyl-acetamide], on human PDE4B1, the inhibition at 1 µM was determined as 107% and the IC50 is under 100 nM.
Taken in the same sequence, the figures for `CN(C)C(=O)COc1ccc2c(c1)N(c1nc(-c3ccc(Br)c(F)c3)nc3c1C[S+]([O-])C3)CC2` (centres unmarked) [Compound No. 2-86, 2-((1-(2-(4-Bromo-3-fluorophenyl)-6-oxido-5,7-dihydrothieno[3,4-d]pyrimidin-4-yl)indolin-6-yl)oxy)-N,N-dimethylacetamide] were 111% and 100 to 1000 nM.
With `O=C(O)Cc1ccc2c(c1)CCN2c1nc(-c2ccc(F)s2)nc2c1CSC2` [Compound No. 1-23, 2-(1-(2-(5-Fluorothiophen-2-yl)-5,7-dihydrothieno[3,4-d]pyrimidin-4-yl)indolin-5-yl)acetic acid], on human PDE4B1, the inhibition at 1 µM came out at 93% and the IC50 was under 100 nM.
Taken in the same sequence, the figures for `O=C(O)Cc1ccc2c(c1)CCN2c1nc(-c2cc3ccccc3s2)nc2c1C[S+]([O-])C2` (centres unmarked) [Compound No. 1-80, 2-(1-(2-(Benzo[b]thiophen-2-yl)-6-oxido-5,7-dihydrothieno[3,4-d]pyrimidin-4-yl)indolin-5-yl)acetic acid] were 108% and under 100 nM.
On to `O=C(O)c1ccc2c(ccn2-c2nc(-c3ccc(Cl)s3)nc3c2CCC3)c1` [Compound No. 1-70, 1-(2-(5-Chlorothiophen-2-yl)-6,7-dihydro-5H-cyclopenta[d]pyrimidin-4-yl)-1H-indole-5-carboxylic acid], for which, on human PDE4B1, the inhibition at 1 µM was 61% and the IC50 is 100 to 1000 nM.
Taken in the same sequence, the figures for `O=C(O)Cc1ccc2c(c1)CCN2c1nc(-c2ccc(Cl)s2)nc2c1CCCC2` [Compound No. 1-50, 2-(1-(2-(5-Chlorothiophen-2-yl)-5,6,7,8-tetrahydroquinazolin-4-yl)indolin-5-yl)acetic acid] were 76% and 100 to 1000 nM.
The like results for `COc1ccc(-c2nc3c(c(-n4ncc5cc(CC(=O)O)ccc54)n2)CCC3)cc1F` [Compound No. 1-60, 2-(1-(2-(3-Fluoro-4-methoxyphenyl)-6,7-dihydro-5H-cyclopenta[d]-pyrimidin-4-yl)-1H-indazol-5-yl)acetic acid] were, in that order, 67% and 100 to 1000 nM.
The like results for `O=C(COc1ccc2c(c1)N(c1nc(-c3ccc(Cl)s3)nc3c1CS(=O)(=O)C3)CC2)NC1CC1` [Compound No. 2-61, 2-((1-(2-(5-Chlorothiophen-2-yl)-6,6-dioxido-5,7-dihydrothieno[3,4-d]pyrimidin-4-yl)indolin-6-yl)oxy)-N-cyclopropylacetamide] were, in that order, 60% and under 100 nM.
`O=C(O)Cc1ccc2c(c1)CCN2c1nc(-c2ccc(F)s2)nc2c1C[S+]([O-])C2` (centres unmarked) [Compound No. 1-24, 2-(1-(2-(5-Fluorothiophen-2-yl)-6-oxido-5,7-dihydrothieno[3,4-d]pyrimidin-4-yl)indolin-5-yl)acetic acid]: at human PDE4B1, the inhibition at 1 µM came out at 111% and the IC50 is under 100 nM.
In the case of `COc1ccc(-c2nc3c(c(N4C(=O)Cc5cc(CC(=O)O)ccc54)n2)CCC3)cc1Cl` [Compound No. 1-66, 2-(1-(2-(3-Chloro-4-methoxyphenyl)-6,7-dihydro-5H-cyclopenta[d]-pyrimidin-4-yl)-2-oxoindolin-5-yl)acetic acid], on human PDE4B1, the inhibition at 1 µM turned out to be 61% and the IC50 fell in the range of 100 to 1000 nM.
As to `CN(C)C(=O)COc1ccc2c(c1)N(c1nc(-c3ccc(C#N)s3)nc3c1CCC3)CC2` [Compound No. 2-84, 2-((1-(2-(5-Cyanothiophen-2-yl)-6,7-dihydro-5H-cyclopenta[d]pyrimidin-4-yl)indolin-6-yl)oxy)-N,N-dimethylacetamide], at human PDE4B1, the inhibition at 1 µM came to 91% and the IC50 was under 100 nM.
Taken in the same sequence, the figures for `CC(C)NC(=O)COc1ccc2c(c1)N(c1nc(-c3ccc(Cl)s3)nc3c1CS(=O)(=O)C3)CC2` [Compound No. 2-54, 2-((1-(2-(5-Chlorothiophen-2-yl)-6,6-dioxido-5,7-dihydrothieno[3,4-d]pyrimidin-4-yl)indolin-6-yl)oxy)-N-isopropylacetamide] were 54% and 100 to 1000 nM.
As to `O=C(COc1ccc2c(c1)N(c1nc(-c3ccc(Cl)s3)nc3c1CCC3)CC2)NCCO` [Compound No. 2-69, 2-((1-(2-(5-Chlorothiophen-2-yl)-6,7-dihydro-5H-cyclopenta[d]pyrimidin-4-yl)indolin-6-yl)oxy)-N-(2-hydroxyethyl)acetamide], the inhibition at 1 µM against human PDE4B1 came to 4%.
Turning to `COc1ccc(-c2nc3c(c(N4CCc5ccc(OCC(=O)N(C)C)cc54)n2)C[S+]([O-])C3)cn1` (centres unmarked) [Compound No. 2-139, 2-((1-(2-(6-Methoxypyridin-3-yl)-6-oxido-5,7-dihydrothieno[3,4-d]pyrimidin-4-yl)indolin-6-yl)oxy)-N,N-dimethylacetamide], the IC50 on human PDE4B1 was under 100 nM.
Take `COc1ccc(-c2nc3c(c(-n4ncc5cc(CC(=O)O)ccc54)n2)CCC3)cc1Cl` [Compound No. 1-59, 2-(1-(2-(3-Chloro-4-methoxyphenyl)-6,7-dihydro-5H-cyclopenta[d]-pyrimidin-4-yl)-1H-indazol-5-yl)acetic acid]: at human PDE4B1, the inhibition at 1 µM amounted to 38%.
In the case of `CN(C)C(=O)COc1ccc2c(c1)N(c1nc(-c3ccc4occc4c3)nc3c1C[S+]([O-])C3)CC2` (centres unmarked) [2-154, 2-[[1-[2-(Benzofuran-5-yl)-6-oxo-5,7-dihydro-thieno[3,4-d]pyrimidin-4-yl]-2,3-dihydro-1H-indol-6-yl]oxy]-N,N-dimethyl-acetamide], on human PDE4B1, the inhibition at 1 µM stood at 104% and the IC50 is under 100 nM.
Turning to `CN(C)C(=O)COc1ccc2c(c1)N(c1nc(-c3ccc4cccnc4c3)nc3c1C[S+]([O-])C3)CC2` (centres unmarked) [2-149, N,N-Dimethyl-2-[[1-(6-oxo-2-quinolin-7-yl-5,7-dihydro-thieno[3,4-d]pyrimidin-4-yl)-2,3-dihydro-1H-indol-6-yl]oxy]-acetamide], at human PDE4B1, the inhibition at 1 µM was 92% and the half-inhibitory concentration (IC50) is under 100 nM.
With `COc1ccccc1-c1nc2c(c(N3CCc4ccc(OCC(=O)N(C)C)cc43)n1)C[S+]([O-])C2` (centres unmarked) [2-88, 2-[[1-[2-(2-Methoxyphenyl)-6-oxo-5,7-dihydro-thieno[3,4-d]pyrimidin-4-yl]-2,3-dihydro-1H-indol-6-yl]oxy]-N,N-dimethyl-acetamide], on human PDE4B1, the inhibition at 1 µM worked out at 73% and the IC50 fell in the range of 100 to 1000 nM.
